# Experimental data as given in patent publication US20230322846A9, “NEUROACTIVE STEROIDS AND THEIR METHODS OF USE” (SAGE THERAPEUTICS, INC., priority 2018, published 2023).
# pIC50: −log10 of the molar value.
# Target: [35S]-TBPS binding, rat brain cortical membranes
# Experiment: Steroid inhibition of [35S]-TBPS binding
# Conditions: 3 nM [35S]-TBPS, in the presence of 5 mM GABA
# Procedure, shortened: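 Rat cortical P2 membranes incubated 90 min at room temperature with 3 nM [35S]-TBPS, […] and test compound (0.5% DMSO final) in NaCl/Na–K phosphate pH 7.4; nonspecific binding with […]. Filter-bound radioactivity counted; IC50 and Imax from nonlinear fits, mean ± SEM.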
row,Compound,pIC50
1,"C[C@@H]([C@H]1CC[C@H]2[C@@H]3CC[C@@H]4C[C@](C)(O)CC[C@@H]4[C@H]3CC[C@]12C)n1cc(C#N)cn1 [Example 157, 1-((S)-1-((3R,5R,8R,9R,10S,13S,14S,17S)-3-hydroxy-3,13-dimethylhexadecahydro-1H-cyclopenta[a]phenanthren-17-yl)ethyl)-1H-pyrazole-4-carbonitrile]",5.00 to 6.00
2,"C[C@H]([C@H]1CC[C@H]2[C@@H]3CC[C@@H]4C[C@](C)(O)CC[C@@H]4[C@H]3CC[C@]12C)n1nccn1 [Example 158, (3R,5R,8R,9R,10S,13S,14S,17S)-17-((R)-1-(2H-1,2,3-triazol-2-yl)ethyl)-3,13-dimethylhexadecahydro-1H-cyclopenta[a]phenanthren-3-ol]",6.00 to 7.00
3,"C[C@H]([C@H]1CC[C@H]2[C@@H]3CC[C@@H]4C[C@](C)(O)CC[C@@H]4[C@H]3CC[C@]12C)n1ccnn1 [Example 159, (3R,5R,8R,9R,10S,13S,14S,17S)-17-((R)-1-(1H-1,2,3-triazol-1-yl)ethyl)-3,13-dimethylhexadecahydro-1H-cyclopenta[a]phenanthren-3-ol]",≤ 5.00
4,"CCOC[C@@]1(O)CC[C@H]2[C@H](CC[C@@H]3[C@@H]2CC[C@]2(C)[C@@H]([C@@H](C)n4ncc(C#N)c4N)CC[C@@H]32)C1 [Example 160, 5-amino-1-((R)-1-((3R,5R,8R,9R,10S,13S,14S,17S)-3-(ethoxymethyl)-3-hydroxy-13-methylhexadecahydro-1H-cyclopenta[a]phenanthren-17-yl)ethyl)-1H-pyrazole-4-carbonitrile]",5.00 to 6.00
5,"CCOC[C@@]1(O)CC[C@H]2[C@H](CC[C@@H]3[C@@H]2CC[C@]2(C)[C@@H]([C@H](C)n4ncc(C#N)c4N)CC[C@@H]32)C1 [Example 161, 5-amino-1-((S)-1-((3R,5R,8R,9R,10S,13S,14S,17S)-3-(ethoxymethyl)-3-hydroxy-13-methylhexadecahydro-1H-cyclopenta[a]phenanthren-17-yl)ethyl)-1H-pyrazole-4-carbonitrile]",5.00 to 6.00
6,"CCOC[C@@]1(O)CC[C@H]2[C@H](CC[C@@H]3[C@@H]2CC[C@]2(C)[C@@H]([C@@H](C)n4cc(C#N)cn4)CC[C@@H]32)C1 [Example 162, 1-((R)-1-((3R,5R,8R,9R,10S,13S,14S,17S)-3-(ethoxymethyl)-3-hydroxy-13-methylhexadecahydro-1H-cyclopenta[a]phenanthren-17-yl)ethyl)-1H-pyrazole-4-carbonitrile]",6.00 to 7.00
7,"CCOC[C@@]1(O)CC[C@H]2[C@H](CC[C@@H]3[C@@H]2CC[C@]2(C)[C@@H]([C@H](C)n4cc(C#N)cn4)CC[C@@H]32)C1 [Example 163, 1-((S)-1-((3R,5R,8R,9R,10S,13S,14S,17S)-3-(ethoxymethyl)-3-hydroxy-13-methylhexadecahydro-1H-cyclopenta[a]phenanthren-17-yl)ethyl)-1H-pyrazole-4-carbonitrile]",5.00 to 6.00
8,"C[C@@H]([C@H]1CC[C@H]2[C@@H]3CC[C@@H]4C[C@](C)(O)CC[C@@H]4[C@H]3CC[C@]12C)n1nccn1 [Example 164, (3R,5R,8R,9R,10S,13S,14S,17S)-17-((S)-1-(2H-1,2,3-triazol-2-yl)ethyl)-3,13-dimethylhexadecahydro-1H-cyclopenta[a]phenanthren-3-ol]",5.00 to 6.00
9,C[C@H](Nc1cccc(C#N)c1)[C@H]1CC[C@H]2[C@@H]3CC[C@@H]4C[C@](C)(O)CC[C@@H]4[C@H]3CC[C@]12C [Example 201],6.00 to 7.00
10,C[C@@H](Nc1cccc(C#N)c1)[C@H]1CC[C@H]2[C@@H]3CC[C@@H]4C[C@](C)(O)CC[C@@H]4[C@H]3CC[C@]12C [Example 202],> 7.00
11,C[C@@H](Nc1cccnc1)[C@H]1CC[C@H]2[C@@H]3CC[C@@H]4C[C@](C)(O)CC[C@@H]4[C@H]3CC[C@]12C [Example 203],> 7.00
12,C[C@H](Nc1cccnc1)[C@H]1CC[C@H]2[C@@H]3CC[C@@H]4C[C@](C)(O)CC[C@@H]4[C@H]3CC[C@]12C [Example 204],6.00 to 7.00
13,C[C@H](Nc1ccc(C#N)cc1)[C@H]1CC[C@H]2[C@@H]3CC[C@@H]4C[C@](C)(O)CC[C@@H]4[C@H]3CC[C@]12C [Example 205],5.00 to 6.00
14,CCOC[C@@]1(O)CC[C@H]2[C@H](CC[C@@H]3[C@@H]2CC[C@]2(C)[C@@H]([C@@H](C)N[C@H](C)c4ccccc4)CC[C@@H]32)C1 [Example 206],6.00 to 7.00
15,CCOC[C@@]1(O)CC[C@@]2(C)[C@H](CC[C@@H]3[C@@H]2CC[C@]2(C)[C@@H]([C@@H](C)N[C@H](C)c4ccccc4)CC[C@@H]32)C1 [Example 207],5.00 to 6.00
16,C[C@@H](N[C@H](C)[C@H]1CC[C@H]2[C@@H]3CC[C@@H]4C[C@](C)(O)CC[C@@H]4[C@H]3CC[C@]12C)c1ccccc1 [Example 208],6.00 to 7.00
17,C[C@H](N[C@H](C)[C@H]1CC[C@H]2[C@@H]3CC[C@@H]4C[C@](C)(O)CC[C@@H]4[C@H]3CC[C@]12C)c1ccccc1 [Example 209],6.00 to 7.00
18,C[C@H](N[C@@H](C)[C@H]1CC[C@H]2[C@@H]3CC[C@@H]4C[C@](C)(O)CC[C@@H]4[C@H]3CC[C@]12C)c1ccccc1 [Example 210],5.00 to 6.00

row,Compound,pIC50
1,CCOC[C@@]1(O)CC[C@@]2(C)[C@H](CC[C@@H]3[C@@H]2CC[C@]2(C)[C@@H]([C@@H](C)N[C@@H](C)c4ccccc4)CC[C@@H]32)C1 [Example 211],6.00 to 7.00
2,CCOC[C@@]1(O)CC[C@@]2(C)[C@H](CC[C@@H]3[C@@H]2CC[C@]2(C)[C@@H]([C@H](C)N[C@@H](C)c4ccccc4)CC[C@@H]32)C1 [Example 212],5.00 to 6.00
3,"CC[C@H](NCc1ccccc1)[C@H]1CC[C@H]2[C@@H]3CC[C@@H]4C[C@@](O)(COC)CC[C@@H]4[C@H]3CC[C@]12C [Example 213, (3R,5R,8R,9R,10S,13S,14S,17S)-17-((S)-1-(benzylamino)propyl)-3-(methoxymethyl)-13-methylhexadecahydro-1H-cyclopenta[a]phenanthren-3-ol]",5.00 to 6.00
4,"CC[C@@H](NCc1ccccc1)[C@H]1CC[C@H]2[C@@H]3CC[C@@H]4C[C@@](O)(COC)CC[C@@H]4[C@H]3CC[C@]12C [Example 214, (3R,5R,8R,9R,10S,13S,14S,17S)-17-((R)-1-(benzylamino)propyl)-3-(methoxymethyl)-13-methylhexadecahydro-1H-cyclopenta[a]phenanthren-3-ol]",5.00 to 6.00
5,Cc1cc(C#N)ccc1N[C@H](C)[C@H]1CC[C@H]2[C@@H]3CC[C@@H]4C[C@](C)(O)CC[C@@H]4[C@H]3CC[C@]12C [Example 250],> 7.00
6,Cc1cc(C#N)ccc1N[C@@H](C)[C@H]1CC[C@H]2[C@@H]3CC[C@@H]4C[C@](C)(O)CC[C@@H]4[C@H]3CC[C@]12C [Example 251],6.00 to 7.00
7,COC[C@@]1(O)CC[C@H]2[C@H](CC[C@@H]3[C@@H]2CC[C@]2(C)[C@@H]([C@@H](C)Nc4ccc(C#N)cc4C)CC[C@@H]32)C1 [Example 252],> 7.00
8,COC[C@@]1(O)CC[C@H]2[C@H](CC[C@@H]3[C@@H]2CC[C@]2(C)[C@@H]([C@H](C)Nc4ccc(C#N)cc4C)CC[C@@H]32)C1 [Example 253],5.00 to 6.00
9,COC[C@@]1(O)CC[C@H]2[C@H](CC[C@@H]3[C@@H]2CC[C@]2(C)[C@@H]([C@@H](C)Nc4cccc(C#N)c4)CC[C@@H]32)C1 [Example 254],> 7.00
10,COC[C@@]1(O)CC[C@H]2[C@H](CC[C@@H]3[C@@H]2CC[C@]2(C)[C@@H]([C@H](C)Nc4cccc(C#N)c4)CC[C@@H]32)C1 [Example 255],5.00 to 6.00
11,COC[C@@]1(O)CC[C@H]2[C@H](CC[C@@H]3[C@@H]2CC[C@]2(C)[C@@H]([C@@H](C)Nc4ccc(C#N)cc4)CC[C@@H]32)C1 [Example 256],> 7.00
12,COC[C@@]1(O)CC[C@H]2[C@H](CC[C@@H]3[C@@H]2CC[C@]2(C)[C@@H]([C@H](C)Nc4ccc(C#N)cc4)CC[C@@H]32)C1 [Example 257],6.00 to 7.00
13,COC[C@@]1(O)CC[C@H]2[C@H](CC[C@@H]3[C@@H]2CC[C@]2(C)[C@@H]([C@@H](C)Nc4ccc(C#N)nc4)CC[C@@H]32)C1 [Example 258],6.00 to 7.00
14,CCOC[C@@]1(O)CC[C@H]2[C@H](CC[C@@H]3[C@@H]2CC[C@]2(C)[C@@H]([C@@H](C)Nc4cccc(N5CCCC5=O)c4C)CC[C@@H]32)C1 [Example 259],> 7.00
15,CCOC[C@@]1(O)CC[C@H]2[C@H](CC[C@@H]3[C@@H]2CC[C@]2(C)[C@@H]([C@@H](C)Nc4ccc(C#N)cc4C)CC[C@@H]32)C1 [Example 260],> 7.00
16,CCOC[C@@]1(O)CC[C@H]2[C@H](CC[C@@H]3[C@@H]2CC[C@]2(C)[C@@H]([C@@H](C)Nc4ccc(C#N)nc4)CC[C@@H]32)C1 [Example 261],6.00 to 7.00
17,CCOC[C@@]1(O)CC[C@H]2[C@H](CC[C@@H]3[C@@H]2CC[C@]2(C)[C@@H]([C@@H](C)Nc4cccnc4F)CC[C@@H]32)C1 [Example 262],> 7.00
18,CCOC[C@@]1(O)CC[C@H]2[C@H](CC[C@@H]3[C@@H]2CC[C@]2(C)[C@@H]([C@@H](C)Nc4ccc(-n5ccc(C#N)n5)nc4)CC[C@@H]32)C1 [Example 264],6.00 to 7.00
